According to patent publication US20130267606A1, “USE OF VITAMIN K FOR WEIGHT MAINTENANCE AND WEIGHT CONTROL” (VITAK B.V., priority 2011, published 2013):
Like-named read-outs stand apart in the source and are kept apart here.

Key:
[1] = placebo controlled 3-year randomized trial of vitamin K2 (MK-7) on body weight and BMI in postmenopausal women (Example 4); type: in vivo, human
Description: 250 apparently healthy postmenopausal women (age range: 55-75 years) were recruited in a placebo controlled 3-year randomized trial to investigate the influence of vitamin K2 (MK-7, 180 μg/day) on body weight and BMI. Exclusion criteria were: BMI>30 kg/m^2, a medical history or use of drugs known to interfere with vitamin K-, calcium- and/or glucose-metabolism. Body height was measured using a wall-mounted stadiometer. Body weight was measured to the nearest 0.1 kg with participants wearing light clothing and no shoes. Body mass index (BMI) was calculated as body weight (kg) divided by the square of height (m^2). Statistical analysis was performed using the statistical package (SPSS vs 17.0 Corp, Chicago, Ill.). […] In the unpaired t-test the difference in response to treatment was statistically significant at P<0.005 after 3 years.

[2] = placebo controlled randomized 3-year trial of vitamin K2 (MK-4) on BMI and serum markers in postmenopausal women (Example 3); type: in vivo, human; conditions: for serum ucOC / serum cOC: mean±SD
adipogenesis = conditions: in vitro; cited from earlier work
[3] = vitamin K2 (MK-7) dose-response study, circulating osteocalcin and adiponectin (Example 2); type: in vivo, human
[4] = 62.5 mg/kg body weight per day, rats; cited from earlier work
[5] = after 3 years of supplementation, cited from earlier work
[6] = placebo controlled 2-year randomized trial of vitamin K1 on body weight and BMI during and after weight reduction intervention (Example 5); type: in vivo, human; conditions: vitamin K1 1 mg/day
Description: 120 apparently healthy but overweight subjects (age range: 35-60 years, 52 men, 68 women) were recruited in a placebo controlled 2-year randomized trial to investigate the influence of vitamin K1 (1 mg/day) on body weight and BMI during and after a 6-month intervention aiming significant weight reduction. At the start of the study participants were randomized to receive either placebo or vitamin K for 24 months. All participants received extensive dietary counselling and were motivated to increase their physical exercise during the first 6 months of the study, with personal contact once weekly. After this initial period, counselling was stopped, but vitamin K/placebo treatment was continued for another 18 months, while participants visited our institute every half year. Inclusion criteria were: apparently healthy, BMI between 25 and 35 kg/m^2, Exclusion criteria were: a medical history or use of drugs known to interfere with vitamin K-, calcium- and/or glucose-metabolism. Body height was measured using a wall-mounted stadiometer. Body weight was measured to the nearest 0.1 kg with participants wearing light clothing and no shoes. Body mass index (BMI) was calculated as body weight (kg) divided by the square of height (m^2). Statistical analysis was performed using the statistical package (SPSS vs 17.0 Corp, Chicago, Ill.).

[7] = 1 year of supplementation, healthy postmenopausal women; cited from earlier work
[8] = second phase of the study (18 months)

Molecule: CC(C)=CCC/C(C)=C/CC/C(C)=C/CC/C(C)=C/CC1=C(C)C(=O)c2ccccc2C1=O [MK-4]
- BMI ([1]; after 3 years supplementation (180 μg/day), P=0.463): 25.4±3.0 kg/m^2
- average body weight ([1]; after 3 years supplementation (180 μg/day), non-significant change): 67.4 kg
- BMI ([1]; baseline, treated group): 25.2±2.8 kg/m^2
- average body weight ([1]; baseline, treated group): 66.9 kg
- UCR (ucOC/cOC ratio) ([2]; after 3 years MK-4 45 mg/day): 0.12±0.15
- decrease of UCR ([2]; after 3 years MK-4 45 mg/day versus baseline, P<0.0001): 74±22%
- serum ucOC ([2]; after 3 years MK-4 45 mg/day, P<0.0001): 0.8 ± 1.0 ng/mL
- serum cOC ([2]; after 3 years MK-4 45 mg/day, P=0.046): 6.9 ± 2.3 ng/mL
- circulating adiponectin ([2]; after 3 years MK-4 45 mg/day, no significant difference to placebo (P=0.224)): 13.1 ± 8.3 µg/mL
- BMI ([2]; after 3 years MK-4 45 mg/day, non-significant increase (P=0.463)): 27.2±0.3 kg/m^2
- BMI ([2]; baseline, MK-4 group): 27.1±0.3 kg/m^2
- UCR (ucOC/cOC ratio) ([2]; baseline, MK-4 group): 0.54±0.35
- serum cOC ([2]; baseline, MK-4 group): 6.4 ± 2.5 ng/mL
- serum ucOC ([2]; baseline, MK-4 group): 3.2 ± 1.9 ng/mL
- circulating adiponectin ([2]; baseline, MK-4 group, no significant difference to placebo (P=0.562)): 14.2 ± 9.7 µg/mL
- average body weight ([2]; remained constant over 3 years MK-4 45 mg/day): 70.3 ± 0.9 kg
- adipogenesis (adipogenesis): inhibited
- osteoblastic differentiation (adipogenesis): stimulated

Molecule: CC(C)=CCC/C(C)=C/CC/C(C)=C/CC/C(C)=C/CC/C(C)=C/CC/C(C)=C/CC/C(C)=C/CC1=C(C)C(=O)c2ccccc2C1=O [MK-7]
- ucOC/cOC ratio ([3]; MK-7 45-360 μg per day for 12 weeks, effect even at 45 μg/day): significant decrease
- circulating ucOC ([3]; MK-7 45-360 μg per day for 12 weeks, effect even at 45 μg/day, healthy men and premenopausal women): significant decrease
- circulating adiponectin ([3]; nutritional levels of MK-7, 12 weeks): does not affect
- effect on body weight and BMI ([1]; nutritionally relevant intake, MK-7 180 μg/day, 3 years, versus placebo increase): maintenance of body weight and BMI

Molecule: menaquinone [vitamin K2]
- effect in animal model for auto-immune disease [4]: protective

Molecule: CC1=C(C/C=C(\C)CCC[C@H](C)CCC[C@H](C)CCCC(C)C)C(=O)c2ccccc2C1=O [vitamin K1, phylloquinone]
- progression of insulin resistance ([5]; older men): reduced
- progression of insulin resistance ([5]; women): not
- decrease of average body weight and BMI versus placebo ([6]; first 6 months with dietary counselling and exercise): non-significant better performance
- average weight gain versus placebo group ([6]; following 18 months (second phase), p<0.05): significantly lower
- participants returned to their starting weight [6, 8]: 7 participants
- participants without significant weight gain [6, 8]: 28 participants
- adipogenesis (adipogenesis): not
- glucose metabolism [7]: did not alter
